Test results: patent US20230046018A1, “BIARYL COMPOUND AS PAN-RAF KINASE INHIBITOR” (MEDSHINE DISCOVERY INC., priority 2019, published 2023)
Like-named read-outs stand apart in the source and are kept apart here.

Columns and labels:
[1] = system: HCT-116(Kras^G13D); assay: HCT-116 (Kras^G13D) antiproliferative activity (CellTiter Glo); assay type: cell-based; settings: HCT-116 (Kras^G13D) cells, three days
Experimental: Experiments for HCT-116(Kras^G13D) Antiproliferative Activity
(1) cell medium: 89% Mc'Coy 5A, 10% fetal bovine serum and 1% penicillin-streptomycin;
(2) the original medium in the cell culture flask was removed; the cells were digested with trypsin and then counted; and the cell suspension was diluted with the medium to a cell density of 2.5×10^4 cells per milliliter required for plating;
(§1) (3) 100 μL of the medium was added to the outermost circle of wells of the cell plate; 80 μL of the cell suspension was added to other wells; and the plate was cultured overnight in a 37° C. incubator with 5% CO2.
the compounds were subjected to a gradient dilution and then supplemented; and the cell plate was put back into the incubator for three days.
(§2) adding CTG and reading the plate involve adding 20 μL of CellTiterGlo to each well of the cell plate, shaking the plate for 10 min in the dark, and reading the plate on Victor Nivo.

[2] = system: ERK phosphorylation in Ca1u-6(Kras^Q61K); assay: Ca1u-6 (Kras^Q61K) ERK phosphorylation inhibition (HTRF); assay type: cell-based, human; settings: 1 hour with compound, read-out: Calu-6 ERK phosphorylation inhibitory activity IC50
Experimental: Experiments for Ca1u-6(Kras^Q61K) ERK Phosphorylation Inhibition
(§3) 1) cells were resuscitated, cultured to a logarithmic growth phase, then digested with trypsin and seeded in a 96-well plate, and the plate was incubated overnight in an incubator;
(§4) 2) serial gradients of compounds dissolved in DMSO were added to the 96-well plate, which was then put back into the incubator for 1 hour;
3) the cell plate was taken out; and the cells were incubated and lysed by adding cell lysates (containing 1% blocking peptide) for 30 minutes at room temperature;
(§5) 4) 16 μL of cell lysates per well was transferred to the HTRF plate, and then 4 μL of the mixed antibody solution formulated thereby was added;
(§6) 5) after overnight incubation, the plate was read on Envision; the fitted curves were obtained according to ratio (the ratio of Ex665/Ex615 fluorescence intensity); and EC50 was calculated with the four-parameter fitting formula, i.e., Y=Bottom+(Top−Bottom)/(1+10^((LogEC50−X)*Hill Slope)) on Graphpad.

[3] = biological target: T1, cRAF protein (Homo sapiens, UniProt P04049); assay: c-RAF enzyme inhibitory activity (ADP-Glo, MEK1 substrate); assay type: biochemical; settings: MEK1 and ATP substrate
T1 construct: purchased Creative BioMart RAF1-416H
Experimental: Experiments for c-RAF Enzyme Inhibitory Activity
the compounds to be tested and reference compounds were diluted to 100 μM with DMSO, and the compounds were further subjected to a 3-fold gradient dilution using Echo to obtain target plates with 11 concentration gradients.
1) buffer formulation: 50 mM Tris-HCl (pH 7.4), 3.5 mM MgCl2, 150 mM NaCl, 1 mM DTT, 0.02% Triton X-100, H2O;
7) after 1 hour, the plate was read on Envision.

[4] = system: Ca1u-6 (Kras^Q61K); assay: Ca1u-6 (Kras^Q61K) antiproliferative activity (CellTiter Glo); assay type: cell-based, human; settings: Ca1u-6 (Kras^Q61K) cells, three days, read-out: Calu-6 anti-proliferative activity IC50
Experimental: Experiments for Ca1u-6 (Kras^Q61K) Antiproliferative Activity
(1) cell medium: 89% EMEM, 10% fetal bovine serum and 1% penicillin-streptomycin;
(2) the original medium in the cell culture flask was removed; the cells were digested with trypsin and then counted; and the cell suspension was diluted with the medium to a cell density of 3.75×10^4 cells per milliliter required for plating;
as §1
the compounds were subjected to a gradient dilution and then supplemented using Echo; and the cell plate was put back into the incubator for three days.
as §2

[5] = system: ERK phosphorylation in HCT116(Kras^G13D); assay: HCT116 (Kras^G13D) ERK phosphorylation inhibition (HTRF); assay type: cell-based, human; settings: 1 hour with compound, read-out: HCT-116 ERK phosphorylation inhibitory activity IC50
Experimental: Experiments for HCT116(Kras^G13D) ERK Phosphorylation Inhibition
as §3, §4
3) the cell plate was taken out; the supernatant was removed; and the cells were incubated and lysed by adding cell lysates (containing 1% blocking peptide) for 30 minutes at room temperature;
as §5, §6

[6] = In vivo pharmacokinetics in mice; settings: mouse, plasma, female CD-1 mice; for AUC: read-out: Curve area AUC
From the text: Experiments for In Vivo Pharmacokinetics in Mice
2) Experimental animals: 4 female CD-1 mice, which were divided into 2 groups, 2 mice in each group;
3) Drug formulation: An appropriate amount of the drug was weighed and dissolved in an aqueous solution of solutol (5% by volume), DMSO (5% by volume) and PEG-300 (25% by volume) for injection administration. An appropriate amount of the drug was weighed and dispersed in a 5% solutol aqueous solution (80% by volume), and then PEG-400 (20% by volume) was added; the mixture was mixed well and used for intragastric administration. Solutol is polyethylene glycol-15-hydroxystearate.
The animals in the first group were administered the compound at a dose of 2 mg/kg at a concentration of 1 mg/mL by intravenous administration. Plasma samples were collected from the animals at 0.117, 0.333, 1, 2, 4, 7 and 24 hours after administration. The animals in the second group were administered the compound at a dose of 100 mg/kg at a concentration of 10 mg/mL by intragastric administration. Plasma samples were collected from the animals at 0.0833, 0.25, 0.5, 1, 2, 4, 6, 8 and 24 hours after administration. The drug concentration at each point was determined by the LC-MS/MS method, and kinetic parameters of the tested drug were as follows: […]

[7] = system: human lung cancer Ca1u-6 subcutaneous xenograft tumor; assay: In vivo pharmacodynamics, human lung cancer Ca1u-6 subcutaneous xenograft tumor BALB/c nude mouse model; settings: 100 mg/kg PO QD × 21 days, Ca1u-6 xenograft, BALB/c nude mice
Experimental: When the cell saturation was 80% to 90%, and the number reached the requirement, the cells were collected, counted and inoculated.
Tumor diameter was measured twice a week with a vernier caliper.
TGI (%) reflected the tumor growth inhibition rate.

[8] = Homo sapiens, Calu-6, 1 h, Ca1u-6 (Kras^Q61K) cells
[9] = Homo sapiens, HCT-116, 1 h, HCT116 (Kras^G13D) cells
[10] = Homo sapiens, HCT-116, HCT116 (Kras^G13D) cells

T1 sequence (P04049 whole entry): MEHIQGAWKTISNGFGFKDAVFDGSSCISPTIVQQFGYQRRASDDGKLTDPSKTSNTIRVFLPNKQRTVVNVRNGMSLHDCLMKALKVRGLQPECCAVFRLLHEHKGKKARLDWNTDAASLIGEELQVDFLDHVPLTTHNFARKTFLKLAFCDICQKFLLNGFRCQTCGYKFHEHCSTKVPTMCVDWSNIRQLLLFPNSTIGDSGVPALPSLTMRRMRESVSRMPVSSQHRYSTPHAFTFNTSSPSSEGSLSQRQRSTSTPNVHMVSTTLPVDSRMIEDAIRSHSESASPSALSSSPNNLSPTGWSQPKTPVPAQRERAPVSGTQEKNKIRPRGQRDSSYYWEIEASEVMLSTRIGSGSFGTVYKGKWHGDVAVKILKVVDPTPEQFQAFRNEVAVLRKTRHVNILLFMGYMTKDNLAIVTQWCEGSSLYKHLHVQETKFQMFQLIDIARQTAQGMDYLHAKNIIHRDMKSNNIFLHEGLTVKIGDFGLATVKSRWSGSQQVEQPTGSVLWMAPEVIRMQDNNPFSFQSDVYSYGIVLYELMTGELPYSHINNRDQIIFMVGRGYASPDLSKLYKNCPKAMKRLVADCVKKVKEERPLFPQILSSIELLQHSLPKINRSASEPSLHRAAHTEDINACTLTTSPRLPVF

Row | Structure (SMILES) | IC50 ([1]; Homo sapiens, 72 h) [nM] | IC50 [2, 8] [nM] | IC50 [3] [nM] | IC50 ([4]; Homo sapiens, Calu-6, 72 h) [nM] | also measured
1 | Cc1ccc(NC(=O)c2ccnc(C(C)(F)F)c2)cc1-c1cc(OCCO)nc(C23CCOCC2C3)c1 (stereo not drawn) [Compound 6] | 600 | 220 | 0.9 | 1000 | 
2 | Cc1ccc(NC(=O)c2ccnc(C(F)(F)F)c2)cc1-c1cc(OCCO)nc(C23CCOCC2C3(F)F)c1 (stereo not drawn) [Compound 11] | 800 | 430 | 2.8 | 1100 | 
3 | Cc1ccc(NC(=O)c2ccnc(C(F)(F)F)c2)cc1-c1cc(N(C)CCO)nc(C23CCOCC2C3)c1 (stereo not drawn) [Compound 2] | 2300 |  | 2.7 | 1100 | IC50 [5, 9]: 210 nM
4 | Cc1ccc(NC(=O)c2ccnc(C(F)(F)F)c2)cc1-c1cc(SCCO)nc(C23CCOCC2C3)c1 (stereo not drawn) [Compound 7] |  |  | 2.5 |  | 
5 | COC[C@@H](O)COc1cc(-c2cc(NC(=O)c3ccnc(C(F)(F)F)c3)ccc2C)cc(C23CCOCC2C3)n1 (stereo partly drawn) [Compound 10] | 5300 |  | 2.5 | 7100 | 
6 | Cc1ccc(NC(=O)c2ccnc(C(F)(F)F)c2)cc1-c1cc(OCCO)nc(C23CCOCC2C3)c1 (single isomer, unassigned) [Compound 1A] | 600 | 220 | 2.5 | 1200 | IC50 [5, 9]: 140 nM
7 | Cc1ccc(NC(=O)c2ccnc(C(F)(F)F)c2)cc1-c1cc(OCC(C)(C)O)nc(C23CCOCC2C3)c1 (stereo not drawn) [Compound 15] | 900 | 330 |  | 4700 | 
8 | Cc1ccc(NC(=O)c2ccnc(C(F)F)c2)cc1-c1cc(OCCO)nc(C23CCOCC2C3)c1 (stereo not drawn) [Compound 5] | 2600 | 170 | 1 | 4600 | 
9 | Cc1ccc(NC(=O)c2ccnc(C(F)(F)F)c2)cc1-c1cc(OCCO)nc(C23CCOCC2(C#N)C3)c1 (stereo not drawn) [Compound 14] | 400 | 330 |  | 3500 | 
10 | Cc1ccc(NC(=O)c2ccnc(C(F)(F)F)c2)cc1-c1cc(OCCO)nc([C@]23COC[C@H]2C3)c1 [Compound 16B] | 1100 |  |  | 600 | bioavailability ([6]; oral, intragastric 100 mg/kg versus intravenous 2 mg/kg, read-out: Bioavailability F): 131%; Tmax ([6]; po, intragastric administration 100 mg/kg, read-out: Maximum concentration time Tmax): 1 h; clearance ([6]; intravenous administration 2 mg/kg, read-out: Clearance rate Cl): 25.8 mL/min/kg; Vd ([6]; intravenous administration 2 mg/kg, read-out: Distribution volume Vd): 2.75 L/kg; half-life ([6]; intravenous administration 2 mg/kg, read-out: Half-life T1/2 (converted)): 1.43 h; AUC ([6]; po, intragastric administration 100 mg/kg): 178 µM·h; Cmax ([6]; po, intragastric administration 100 mg/kg, read-out: Maximum concentration Cmax): 25 µM; AUC ([6]; intravenous administration 2 mg/kg): 2.61 µM·h; C0 ([6]; intravenous administration 2 mg/kg, read-out: Initial concentration C0): 2.01 µM; IC50 [5, 10]: 180 nM; IC50 ([2]; Homo sapiens, Calu-6, Ca1u-6 (Kras^Q61K) cells): 490 nM; relative tumor proliferation rate T/C [7]: 11.4%; tumor growth inhibition rate TGI [7]: 99.1%
11 | Cc1ccc(NC(=O)c2ccnc(C(F)(F)F)c2)cc1-c1cc(OCCO)nc(C23COCC2C3)c1 (stereo not drawn) [Compound 16] | 2200 |  |  | 1300 | IC50 [5, 10]: 160 nM
12 | Cc1ccc(NC(=O)c2ccnc(C(F)(F)F)c2)cc1-c1cc(C23CCOCC2C3)cc(OCCO)n1 (stereo not drawn) [Compound 8] | 1100 | 350 | 1.1 | 1000 | 
13 | Cc1ccc(NC(=O)c2ccnc(C(F)(F)F)c2)cc1-c1cc(OCCO)nc(C23CCOCC2C3)c1 (single isomer, unassigned) [Compound 1B] |  |  | 2 |  | IC50 [1]: 600 nM; IC50 ([5]; HCT116 (Kras^G13D) cells): 220 nM; IC50 ([2]; Ca1u-6 (Kras^Q61K) cells): 250 nM; IC50 [4]: 960 nM
14 | Cc1ccc(NC(=O)c2ccnc(C(F)(F)F)c2)cc1-c1cc(N2CC(O)C2)nc(C23CCOCC2C3)c1 (stereo not drawn) [Compound 13] | 200 | 390 |  | 200 | 
15 | Cc1ccc(NC(=O)c2ccnc(C(F)(F)F)c2)cc1-c1cc(OC[C@H](O)CO)nc(C23CCOCC2C3)c1 (stereo partly drawn) [Compound 9] | 800 | 180 | 1.2 | 6400 | 
16 | Cc1ccc(NC(=O)c2ccnc(C(F)(F)F)c2)cc1-c1cc(NCCO)nc(C23CCOCC2C3)c1 (stereo not drawn) [Compound 3] | 2300 |  | 1.7 | 1400 | IC50 [5, 9]: 190 nM
